Among the data in BigSolDB 2.1 are solubility (mole fraction) values, retold here.

What is called solubility (mole fraction) is the moles of solute divided by all moles in the saturated solution.

The conditions of the first data set: in n-octanol, 293.15 K.
`O=[N+]([O-])c1ccc(NS(=O)(=O)c2ccccc2)cc1`: the solubility (mole fraction) was found to be 0.00958.

Consider `Nc1ccc(S(=O)(=O)Nc2ccc([N+](=O)[O-])cc2)cc1`, for which the solubility (mole fraction) came out at 0.0026.

As to `N#Cc1ccc(NS(=O)(=O)c2ccc(N)cc2)cc1`, the solubility (mole fraction) stood at 0.00112.

Still in this data set, the particulars now being: in n-octanol, 298.15 K.
The molecule `O=[N+]([O-])c1ccc(NS(=O)(=O)c2ccccc2)cc1` displayed a solubility (mole fraction) of 0.0116.

Regarding `Nc1ccc(S(=O)(=O)Nc2ccc([N+](=O)[O-])cc2)cc1`, the solubility (mole fraction) turned out to be 0.003.

`N#Cc1ccc(NS(=O)(=O)c2ccc(N)cc2)cc1`: the solubility (mole fraction) stood at 0.00129.

The data set is the same for the next values; noted with them: in n-octanol, 303.15 K.
In the case of `O=[N+]([O-])c1ccc(NS(=O)(=O)c2ccccc2)cc1`, the solubility (mole fraction) stood at 0.0139.

Molecule `Nc1ccc(S(=O)(=O)Nc2ccc([N+](=O)[O-])cc2)cc1` gave a solubility (mole fraction) of 0.00361.

For `N#Cc1ccc(NS(=O)(=O)c2ccc(N)cc2)cc1`, the solubility (mole fraction) came out at 0.00158.

Still in this data set, the particulars now being: in n-octanol, 310.15 K.
With `O=[N+]([O-])c1ccc(NS(=O)(=O)c2ccccc2)cc1`, the solubility (mole fraction) was 0.018.

`Nc1ccc(S(=O)(=O)Nc2ccc([N+](=O)[O-])cc2)cc1`: the solubility (mole fraction) was 0.00465.

As to `N#Cc1ccc(NS(=O)(=O)c2ccc(N)cc2)cc1`, the solubility (mole fraction) was 0.00197.

Still in this data set, the particulars now being: in n-octanol, 315.15 K.
`O=[N+]([O-])c1ccc(NS(=O)(=O)c2ccccc2)cc1` returned a solubility (mole fraction) of 0.0222.

Consider `Nc1ccc(S(=O)(=O)Nc2ccc([N+](=O)[O-])cc2)cc1`, for which the solubility (mole fraction) worked out at 0.00562.

Molecule `N#Cc1ccc(NS(=O)(=O)c2ccc(N)cc2)cc1` registered a solubility (mole fraction) of 0.00234.

Staying with this data set, now noted: in water, 293.15 K.
The molecule `O=[N+]([O-])c1ccc(NS(=O)(=O)c2ccccc2)cc1` yielded a solubility (mole fraction) of 1.45e-06.

Take `Nc1ccc(S(=O)(=O)Nc2ccc([N+](=O)[O-])cc2)cc1`: the solubility (mole fraction) turned out to be 2.72e-06.

`N#Cc1ccc(NS(=O)(=O)c2ccc(N)cc2)cc1` showed a solubility (mole fraction) of 4.11e-06.

Still in this data set, the particulars now being: in water, 298.15 K.
Turning to `O=[N+]([O-])c1ccc(NS(=O)(=O)c2ccccc2)cc1`, the solubility (mole fraction) came out at 1.85e-06.

`Nc1ccc(S(=O)(=O)Nc2ccc([N+](=O)[O-])cc2)cc1` came in with a solubility (mole fraction) of 3.64e-06.

The molecule `N#Cc1ccc(NS(=O)(=O)c2ccc(N)cc2)cc1` showed a solubility (mole fraction) of 5.47e-06.

The data set is the same for the next values; noted with them: in water, 303.15 K.
`O=[N+]([O-])c1ccc(NS(=O)(=O)c2ccccc2)cc1`: the solubility (mole fraction) stood at 2.32e-06.

Consider `Nc1ccc(S(=O)(=O)Nc2ccc([N+](=O)[O-])cc2)cc1`, for which the solubility (mole fraction) was determined as 4.88e-06.

`N#Cc1ccc(NS(=O)(=O)c2ccc(N)cc2)cc1` had a solubility (mole fraction) of 7.58e-06.

Still in this data set, the particulars now being: in water, 310.15 K.
As for `O=[N+]([O-])c1ccc(NS(=O)(=O)c2ccccc2)cc1`, the solubility (mole fraction) worked out at 3.19e-06.

Molecule `Nc1ccc(S(=O)(=O)Nc2ccc([N+](=O)[O-])cc2)cc1` came in with a solubility (mole fraction) of 7.63e-06.

`N#Cc1ccc(NS(=O)(=O)c2ccc(N)cc2)cc1` gave a solubility (mole fraction) of 1.16e-05.

The same data set, now with this note: in water, 315.15 K.
The molecule `O=[N+]([O-])c1ccc(NS(=O)(=O)c2ccccc2)cc1` came in with a solubility (mole fraction) of 3.71e-06.

As to `Nc1ccc(S(=O)(=O)Nc2ccc([N+](=O)[O-])cc2)cc1`, the solubility (mole fraction) worked out at 8.29e-06.

`N#Cc1ccc(NS(=O)(=O)c2ccc(N)cc2)cc1` displayed a solubility (mole fraction) of 1.45e-05.
